{
  "source": "patent US6355799B1",
  "about": "“Substituted benzene compounds, process for their preparation, and herbicidal and defoliant compositions containing them” (ISK Americas Incorporated, priority 1997, dated 2002)",
  "type_in_all_cases": "in vivo",
  "key": {"[1]": {"tested_on": "upland rice (Oryza sp., var. Tebonnet, RICE)", "experiment": "Post-emerge test, crop safety", "details": "post-emerge, 14 days after application, rating scale 0-100", "method_in_brief": "(§1)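 Visual ratings on a 0-100 scale (0 no damage, 100 all plants dead) were taken at 14 days after treatment. Rates of 15-1000 g ai/ha in acetone, 187 l/ha, were sprayed onto soil one day after planting (pre-emerge) or onto 2-3 leaf plants with 0.25% v/v surfactant (post-emerge).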"}, "[2]": {"tested_on": "field corn (Zea mays L., var. Dekalb 535, CORN)", "experiment": "Post-emerge test, crop safety", "details": "post-emerge, 14 days after application, rating scale 0-100", "method_in_brief": "as §1"}, "[3]": {"tested_on": "upland rice (Oryza sp., var. Tebonnet, RICE)", "experiment": "Pre-emerge test, crop safety", "details": "rated 14 days after application, 0 = no damage, 100 = complete death", "method_in_brief": "(§2)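 Sandy loam pots; pre-emerge: sown 1 d pre-spray, surface-watered after, then bottom-watered. Post-emerge: sown 8–21 d before, 2–3 leaf stage, + 0.25% v/v NIS, bottom-watered. Acetone, 187 l/ha track spray, 15–1000 g ai/ha. 0–100 injury score, day 14.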"}, "[4]": {"tested_on": "field corn (Zea mays L., var. Dekalb 535, CORN)", "experiment": "Pre-emerge test, crop safety", "details": "rated 14 days after application, 0 = no damage, 100 = complete death", "method_in_brief": "as §2"}, "[5]": {"tested_on": "redroot pigweed (Amaranthus retroflexus, AMARE)", "experiment": "Pre-emerge test, greenhouse herbicide activity screening", "details": "rated 14 days after application, 0 = no damage, 100 = complete death", "method_in_brief": "as §2"}, "[6]": {"tested_on": "velvetleaf (Abutilon theophrasti, ABUTH)", "experiment": "Post-emerge test, greenhouse herbicide activity screening", "details": "post-emerge, 14 days after application, rating scale 0-100", "method_in_brief": "(§3)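 Compounds in acetone were track-sprayed at 187 l/ha, 15–1000 g ai/ha, onto sandy loam pots. Pre-emerge seeds were sown one day before spraying, with surface watering afterwards. Post-emerge plants were at the 2–3 leaf stage and sprayed with 0.25% v/v non-ionic surfactant. Injury was rated 0–100 at 14 days.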"}, "[7]": {"tested_on": "lambsquarters (Chenopodium album, CHEAL)", "experiment": "Post-emerge test, greenhouse herbicide activity screening", "details": "post-emerge, 14 days after application, rating scale 0-100", "method_in_brief": "as §3"}, "[8]": {"tested_on": "redroot pigweed (Amaranthus retroflexus, AMARE)", "experiment": "Post-emerge test, greenhouse herbicide activity screening", "details": "post-emerge, 14 days after application, rating scale 0-100", "method_in_brief": "as §3"}, "[9]": {"tested_on": "sicklepod (Cassia obtusifolia, CASOB)", "experiment": "Post-emerge test, greenhouse herbicide activity screening", "details": "post-emerge, 14 days after application, rating scale 0-100", "method_in_brief": "as §3"}, "[10]": {"tested_on": "ivyleaf morningglory (Ipomoea hederacea, IPOHE)", "experiment": "Post-emerge test, greenhouse herbicide activity screening", "details": "post-emerge, 14 days after application, rating scale 0-100", "method_in_brief": "as §3"}, "[11]": {"tested_on": "large crabgrass (Digitaria sanguinalis, DIGSA)", "experiment": "Post-emerge test, greenhouse herbicide activity screening", "details": "post-emerge, 14 days after application, rating scale 0-100", "method_in_brief": "as §3"}, "[12]": {"tested_on": "johnsongrass (Sorghum halepense, SORHA)", "experiment": "Post-emerge test, greenhouse herbicide activity screening", "details": "post-emerge, 14 days after application, rating scale 0-100", "method_in_brief": "as §3"}, "[13]": {"tested_on": "green foxtail (Setaria viridis, SETVI)", "experiment": "Post-emerge test, greenhouse herbicide activity screening", "details": "post-emerge, 14 days after application, rating scale 0-100", "method_in_brief": "as §3"}, "[14]": {"tested_on": "barnyardgrass (Echinochloa crus-galli, ECHCG)", "experiment": "Post-emerge test, greenhouse herbicide activity screening", "details": "post-emerge, 14 days after application, rating scale 0-100", "method_in_brief": "as §3"}, "[15]": {"tested_on": "velvetleaf (Abutilon theophrasti, ABUTH)", "experiment": "Pre-emerge test, greenhouse herbicide activity screening", "details": "rated 14 days after application, 0 = no damage, 100 = complete death", "method_in_brief": "as §1"}, "[16]": {"tested_on": "lambsquarters (Chenopodium album, CHEAL)", "experiment": "Pre-emerge test, greenhouse herbicide activity screening", "details": "rated 14 days after application, 0 = no damage, 100 = complete death", "method_in_brief": "as §1"}, "[17]": {"tested_on": "sicklepod (Cassia obtusifolia, CASOB)", "experiment": "Pre-emerge test, greenhouse herbicide activity screening", "details": "rated 14 days after application, 0 = no damage, 100 = complete death", "method_in_brief": "as §1"}, "[18]": {"tested_on": "ivyleaf morningglory (Ipomoea hederacea, IPOHE)", "experiment": "Pre-emerge test, greenhouse herbicide activity screening", "details": "rated 14 days after application, 0 = no damage, 100 = complete death", "method_in_brief": "as §1"}, "[19]": {"tested_on": "large crabgrass (Digitaria sanguinalis, DIGSA)", "experiment": "Pre-emerge test, greenhouse herbicide activity screening", "details": "rated 14 days after application, 0 = no damage, 100 = complete death", "method_in_brief": "as §1"}, "[20]": {"tested_on": "johnsongrass (Sorghum halepense, SORHA)", "experiment": "Pre-emerge test, greenhouse herbicide activity screening", "details": "rated 14 days after application, 0 = no damage, 100 = complete death", "method_in_brief": "as §1"}, "[21]": {"tested_on": "green foxtail (Setaria viridis, SETVI)", "experiment": "Pre-emerge test, greenhouse herbicide activity screening", "details": "rated 14 days after application, 0 = no damage, 100 = complete death", "method_in_brief": "as §1"}, "[22]": {"tested_on": "barnyardgrass (Echinochloa crus-galli, ECHCG)", "experiment": "Pre-emerge test, greenhouse herbicide activity screening", "details": "rated 14 days after application, 0 = no damage, 100 = complete death", "method_in_brief": "as §1"}},
  "data": [
    {"molecule": "COc1c(Cl)cc(F)c(-n2c(=O)cc(C(F)(F)F)n(C)c2=O)c1NC(=O)C(C)=Cc1ccccc1", "note": "[2-81]", "values": [
      {"measurement": "phytotoxicity rating RICE", "setting": "[1]; 63 g ai/ha", "result": 60},
      {"measurement": "phytotoxicity rating RICE", "setting": "[1]; 250 g ai/ha", "result": 90},
      {"measurement": "phytotoxicity rating CORN", "setting": "[2]; 63 g ai/ha", "result": 30},
      {"measurement": "phytotoxicity rating CORN", "setting": "[2]; 250 g ai/ha", "result": 90},
      {"measurement": "Pre-emerge phytotoxicity rating (0-100), crop damage, RICE", "setting": "[3]; 63 g ai/ha", "result": 70},
      {"measurement": "Pre-emerge phytotoxicity rating (0-100), crop damage, RICE", "setting": "[3]; 250 g ai/ha", "result": 90},
      {"measurement": "Pre-emerge phytotoxicity rating (0-100), crop damage, CORN", "setting": "[4]; 63 g ai/ha", "result": 0},
      {"measurement": "Pre-emerge phytotoxicity rating (0-100), crop damage, CORN", "setting": "[4]; 250 g ai/ha", "result": 90},
      {"measurement": "Pre-emerge Herbicidal Activity, phytotoxicity rating (0-100), AMARE", "setting": "[5]; 63 g ai/ha", "result": 100},
      {"measurement": "Pre-emerge Herbicidal Activity, phytotoxicity rating (0-100), AMARE", "setting": "[5]; 250 g ai/ha", "result": 100},
      {"measurement": "phytotoxicity rating ABUTH", "setting": "[6]; 63 g ai/ha", "result": 100},
      {"measurement": "phytotoxicity rating ABUTH", "setting": "[6]; 250 g ai/ha", "result": 100},
      {"measurement": "phytotoxicity rating CHEAL", "setting": "[7]; 63 g ai/ha", "result": 90},
      {"measurement": "phytotoxicity rating CHEAL", "setting": "[7]; 250 g ai/ha", "result": 100},
      {"measurement": "phytotoxicity rating AMARE", "setting": "[8]; 63 g ai/ha", "result": 100},
      {"measurement": "phytotoxicity rating AMARE", "setting": "[8]; 250 g ai/ha", "result": 100},
      {"measurement": "phytotoxicity rating CASOB", "setting": "[9]; 63 g ai/ha", "result": 70},
      {"measurement": "phytotoxicity rating CASOB", "setting": "[9]; 250 g ai/ha", "result": 100},
      {"measurement": "phytotoxicity rating IPOHE", "setting": "[10]; 63 g ai/ha", "result": 100},
      {"measurement": "phytotoxicity rating IPOHE", "setting": "[10]; 250 g ai/ha", "result": 100},
      {"measurement": "phytotoxicity rating DIGSA", "setting": "[11]; 63 g ai/ha", "result": 20},
      {"measurement": "phytotoxicity rating DIGSA", "setting": "[11]; 250 g ai/ha", "result": 80},
      {"measurement": "phytotoxicity rating SORHA", "setting": "[12]; 63 g ai/ha", "result": 20},
      {"measurement": "phytotoxicity rating SORHA", "setting": "[12]; 250 g ai/ha", "result": 80},
      {"measurement": "phytotoxicity rating SETVI", "setting": "[13]; 63 g ai/ha", "result": 40},
      {"measurement": "phytotoxicity rating SETVI", "setting": "[13]; 250 g ai/ha", "result": 60},
      {"measurement": "phytotoxicity rating ECHCG", "setting": "[14]; 63 g ai/ha", "result": 50},
      {"measurement": "phytotoxicity rating ECHCG", "setting": "[14]; 250 g ai/ha", "result": 90},
      {"measurement": "Pre-emerge Herbicidal Activity, phytotoxicity rating (0-100), ABUTH", "setting": "[15]; 63 g ai/ha", "result": 100},
      {"measurement": "Pre-emerge Herbicidal Activity, phytotoxicity rating (0-100), ABUTH", "setting": "[15]; 250 g ai/ha", "result": 100},
      {"measurement": "Pre-emerge Herbicidal Activity, phytotoxicity rating (0-100), CHEAL", "setting": "[16]; 63 g ai/ha", "result": 100},
      {"measurement": "Pre-emerge Herbicidal Activity, phytotoxicity rating (0-100), CHEAL", "setting": "[16]; 250 g ai/ha", "result": 100},
      {"measurement": "Pre-emerge Herbicidal Activity, phytotoxicity rating (0-100), CASOB", "setting": "[17]; 63 g ai/ha", "result": 90},
      {"measurement": "Pre-emerge Herbicidal Activity, phytotoxicity rating (0-100), CASOB", "setting": "[17]; 250 g ai/ha", "result": 100},
      {"measurement": "Pre-emerge Herbicidal Activity, phytotoxicity rating (0-100), IPOHE", "setting": "[18]; 63 g ai/ha", "result": 60},
      {"measurement": "Pre-emerge Herbicidal Activity, phytotoxicity rating (0-100), IPOHE", "setting": "[18]; 250 g ai/ha", "result": 100},
      {"measurement": "Pre-emerge Herbicidal Activity, phytotoxicity rating (0-100), DIGSA", "setting": "[19]; 63 g ai/ha", "result": 100},
      {"measurement": "Pre-emerge Herbicidal Activity, phytotoxicity rating (0-100), DIGSA", "setting": "[19]; 250 g ai/ha", "result": 100},
      {"measurement": "Pre-emerge Herbicidal Activity, phytotoxicity rating (0-100), SORHA", "setting": "[20]; 63 g ai/ha", "result": 90},
      {"measurement": "Pre-emerge Herbicidal Activity, phytotoxicity rating (0-100), SORHA", "setting": "[20]; 250 g ai/ha", "result": 90},
      {"measurement": "Pre-emerge Herbicidal Activity, phytotoxicity rating (0-100), SETVI", "setting": "[21]; 63 g ai/ha", "result": 100},
      {"measurement": "Pre-emerge Herbicidal Activity, phytotoxicity rating (0-100), SETVI", "setting": "[21]; 250 g ai/ha", "result": 100},
      {"measurement": "Pre-emerge Herbicidal Activity, phytotoxicity rating (0-100), ECHCG", "setting": "[22]; 63 g ai/ha", "result": 70},
      {"measurement": "Pre-emerge Herbicidal Activity, phytotoxicity rating (0-100), ECHCG", "setting": "[22]; 250 g ai/ha", "result": 100}
    ]}
  ]
}
